Values after ≈ are worked out from the molar mass of the structure shown.
What was measured:
[1] = system: ICI strain of herpes simplex virus Type 1; test: Antiviral activity in mice infected intracerebrally with herpes simplex virus; format: in vivo, CD1 mice; details: for Mean Reciprocal Survival times / Survival Times (Days): 100mg/kg/dose; for Mean Reciprocal Survival times: virus controls 0.407; for Survival Times (Days): 2-3 hours after infection and twice daily for 4 days, observed over 14 days, groups of 10 mice
Procedure: The mice were divided into groups of 10, one group acting as untreated virus controls and the other groups receiving respectively (A) acyclovir at 100mg/kg/dose (i) subcutaneously (s.c.) (ii) orally (iii) intraperitoneally (i.p.) (B) the compound of Example 1 (6-deoxyacyclovir) at 100mg/kg/dose i) subcutaneously (s.c.) ii) orally iii) intraperitoneally (i.p.). The treatment groups received dosages of the drug 2-3 hours after infection and twice daily for 4 days. Observations were made over 14 days survival times were recorded.

[2] = Toxicity study in beagle dogs, per os; format: in vivo; details: 40mg/kg/day for 5 consecutive days, sacrificed at end of treatment or after a 2-week post-dose period
Procedure: Two male and 2 female beagle dogs were given 6-deoxyacyclovir per os ([…] daily for 5 consecutive days) at a dose level of 40mg/kg/day. There were no effects in 1 male and 1 female sacrificed at the end of the treatment period or in 1 male and 1 female sacrificed after a 2-week post-dose period.

xanthine oxidase = target: T1, xanthine oxidase (Bos taurus, UniProt P80457); test: Oxidation by xanthine oxidase (enzyme studies); format: biochemical; details: xanthine oxidase from bovine milk; compared with 2-aminopurine
T1 construct: xanthine oxidase from bovine milk; from tissue; host or cells: bovine milk
T1 sequence (P80457 whole entry): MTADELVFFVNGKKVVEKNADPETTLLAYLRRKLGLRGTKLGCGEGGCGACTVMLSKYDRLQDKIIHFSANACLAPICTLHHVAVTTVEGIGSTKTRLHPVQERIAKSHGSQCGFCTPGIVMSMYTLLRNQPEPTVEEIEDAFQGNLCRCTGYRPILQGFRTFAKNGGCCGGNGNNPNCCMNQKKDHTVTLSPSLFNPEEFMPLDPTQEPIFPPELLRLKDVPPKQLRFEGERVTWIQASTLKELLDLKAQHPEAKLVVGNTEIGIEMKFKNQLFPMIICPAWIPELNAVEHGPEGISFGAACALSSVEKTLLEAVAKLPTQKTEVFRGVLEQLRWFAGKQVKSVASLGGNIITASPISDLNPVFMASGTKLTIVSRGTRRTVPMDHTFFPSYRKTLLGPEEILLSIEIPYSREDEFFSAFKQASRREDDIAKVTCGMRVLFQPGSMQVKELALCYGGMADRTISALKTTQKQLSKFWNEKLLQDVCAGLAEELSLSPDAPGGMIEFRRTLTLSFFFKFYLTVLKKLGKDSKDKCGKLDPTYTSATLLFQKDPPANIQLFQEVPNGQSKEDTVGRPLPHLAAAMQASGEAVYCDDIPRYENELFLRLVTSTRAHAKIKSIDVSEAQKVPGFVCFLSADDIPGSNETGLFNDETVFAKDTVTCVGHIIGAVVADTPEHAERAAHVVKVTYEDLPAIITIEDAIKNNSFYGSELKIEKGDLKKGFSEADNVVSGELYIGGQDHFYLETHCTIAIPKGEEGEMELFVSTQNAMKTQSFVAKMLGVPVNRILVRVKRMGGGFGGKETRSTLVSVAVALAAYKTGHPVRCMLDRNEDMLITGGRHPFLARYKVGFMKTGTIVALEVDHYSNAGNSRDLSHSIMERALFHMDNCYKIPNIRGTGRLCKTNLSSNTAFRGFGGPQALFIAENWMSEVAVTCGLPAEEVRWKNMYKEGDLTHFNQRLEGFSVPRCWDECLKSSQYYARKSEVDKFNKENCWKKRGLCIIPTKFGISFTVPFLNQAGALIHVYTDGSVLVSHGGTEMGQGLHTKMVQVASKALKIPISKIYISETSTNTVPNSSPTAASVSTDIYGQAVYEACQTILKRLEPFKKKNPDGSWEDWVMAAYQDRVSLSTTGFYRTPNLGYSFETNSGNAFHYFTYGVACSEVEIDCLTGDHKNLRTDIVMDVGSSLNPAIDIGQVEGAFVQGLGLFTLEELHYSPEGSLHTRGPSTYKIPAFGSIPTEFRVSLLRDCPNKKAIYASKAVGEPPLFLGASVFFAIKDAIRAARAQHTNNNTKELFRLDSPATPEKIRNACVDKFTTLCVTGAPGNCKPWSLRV
From the text: The discovery that the 6-hydrogen purine above can be readily converted into its corresponding 6-hydroxy analogue is surprising since in previous studies with xanthine oxidase from bovine milk (H. Lettre et al (1967) Biochem. Pharmacol., 16, 1747-1755; T. A. Krenitsky et al (1972) Arch. Biophys., 150, 585-599), it was shown that 9-substitution obliterates or greatly diminishes the rate at which a variety of purines are oxidised.

physchem = format: physicochemical; details: water
From the text: This improved water-solubility enables 6-deoxyacyclovir to be used in a greater variety of aqueous pharmaceutical formulations which require some solubilisation of the drug.

[3] = Urinary excretion of acyclovir after oral dosing of rats (radioimmunoassay); format: in vivo, Long Evans male rats; details: rat, dose 25 mg/kg, urine samples, read-out: %Dose Excreted as Acyclovir
Procedure: The following experiments carried out to determine the urinary excretion and plasma levels of acyclovir after oral dosing of rats with acyclovir, 6-deoxyacyclovir and the 6-amino analogue thereof i.e. 2,6-diamino-9-(2-hydroxyethoxymethyl)-purine, hereinafter referred to as aminoacyclovir.
Long Evans male rats were dosed by intragastric needle with the drug and placed in metabolic cages which separated urine from faeces. The collected urine and plasma samples were analyzed for acyclovir content by a radioimmunoassay.

Structure (SMILES)	antiviral action compared with acyclovir ([1]; administered orally)	Mean Reciprocal Survival times ([1]; i.p.)	Survival Times (Days) ([1]; oral)	Mean Reciprocal Survival times ([1]; oral)	Mean Reciprocal Survival times ([1]; s.c.)	effects (toxicity) [2]	rate of oxidation by the enzyme (xanthine oxidase)	solubility (physchem) [mg/mL]	Survival Times (Days) ([1]; i.p.)	dose excreted at 48 h [3] [%]
Nc1ncc2ncn(COCCO)c2n1 [6-Deoxyacyclovir, 2-Amino-9-(2-hydroxyethoxymethyl)-9H-purine]	more effective action than acyclovir	0.233	1+2 1+4 2+5 3+6 1+8 1 survivor	0.186	0.289	no effects	faster rate than the 9- unsubstituted purine	50 (≈ 239 mM)	–	–
Nc1nc2c(ncn2COCCO)c(=O)[nH]1 [Acyclovir, 9-(2-hydroxyethoxymethyl)guanine, reference compound]	–	0.242	–	0.325	0.261	–	–	1.23 (≈ 5.46 mM)	2+2 2+4 2+5 2+7 1 survivor	19.2
